Measurements published in patent US8877707B2, “Inhibitors of HCV NS5A” (Presidio Pharmaceuticals, Inc., priority 2010, dated 2014).

Tested on: HCV genotype 1b replicon in Huh 7 cells
Experiment: HCV replicon assay (1b_Huh-Luc/Neo-ET cell line, luciferase readout)
Format: cell-based
Conditions: Hepatitis C virus, Huh-7; HCV 1b replicon; read-out: Inhibition of HCV genotype 1b
Outline: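 Replicon level was read as luciferase signal after 72 h compound exposure, triplicate wells, starting the day after cells were plated. Cell line: 1b_Huh-Luc/Neo-ET. Values normalised to control as percent, and EC50 fitted with a variable-slope sigmoid; determinations repeated.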

| SMILES | EC50 |
| --- | --- |
| C=CC[C@H](NC(=O)OC)C(=O)N1CCC[C@H]1c1ncc(-c2ccc3nc(-c4ccc(-c5cnc([C@@H]6CCCN6C(=O)[C@H](NC(=O)OC)c6ccccc6)[nH]5)cc4F)ccc3c2)[nH]1 [compound 486] | < 1 nM |
| C#CC[C@H](NC(=O)OC)C(=O)N1CCC[C@H]1c1ncc(-c2ccc3nc(-c4ccc(-c5cnc([C@@H]6CCCN6C(=O)[C@H](NC(=O)OC)c6ccccc6)[nH]5)cc4F)ccc3c2)[nH]1 [compound 487] | < 1 nM |
| COC(=O)N[C@H](C(=O)N1CCC[C@H]1c1ncc(-c2cnc3cc(-c4ccc(-c5cnc([C@@H]6CCCN6C(=O)[C@@H](NC(=O)OC)[C@@H](C)OC)[nH]5)cc4)ccc3c2)[nH]1)C(C)C [compound 488] | < 1 nM |
| COC(=O)N[C@H](C(=O)N1CCC[C@H]1c1ncc(-c2ccc3nc(-c4ccc(-c5cnc([C@@H]6CCCN6C(=O)[C@H](NC(=O)OC)c6ccccc6)[nH]5)cc4)ccc3c2)[nH]1)[C@@H](C)OC [compound 489] | < 1 nM |
| COC(=O)N[C@H](C(=O)N1CCC[C@H]1c1ncc(-c2ccc3nc(-c4ccc(-c5cnc([C@@H]6CCCN6C(=O)[C@H](NC(=O)OC)c6ccccc6)[nH]5)cc4)ccc3c2)[nH]1)[C@@H](C)O [compound 490] | < 1 nM |
| COC(=O)N[C@@H](C)C(=O)N1CCC[C@H]1c1ncc(-c2ccc3nc(-c4ccc(-c5cnc([C@@H]6CCCN6C(=O)[C@H](NC(=O)OC)c6ccccc6)[nH]5)cc4)ccc3c2)[nH]1 [compound 491] | < 1 nM |
| CC[C@H](C)[C@H](NC(=O)OC)C(=O)N1CCC[C@H]1c1ncc(-c2ccc3nc(-c4ccc(-c5cnc([C@@H]6CCCN6C(=O)[C@H](NC(=O)OC)c6ccccc6)[nH]5)cc4)ccc3c2)[nH]1 [compound 492] | < 1 nM |
| COC(=O)N[C@H](C(=O)N1CCC[C@H]1c1ncc(-c2ccc3nc(-c4ccc(-c5cnc([C@@H]6CN(C(C)=O)CCN6C(=O)[C@@H](NC(=O)OC)C(C)C)[nH]5)cc4)ccc3c2)[nH]1)C(C)C [compound 493] | < 1 nM |
| COC(=O)N[C@@H](C(=O)N1CCC[C@H]1c1ncc(-c2ccc3nc(-c4ccc(-c5cnc([C@@H]6CN(C(C)=O)CCN6C(=O)[C@H](NC(=O)OC)c6ccccc6)[nH]5)cc4)ccc3c2)[nH]1)c1ccccc1 [compound 494] | < 1 nM |
| COC(=O)N[C@H](C(=O)N1CCN(C(C)=O)C[C@H]1c1ncc(-c2ccc(-c3ccc4cc(-c5cnc([C@@H]6CCCN6C(=O)[C@@H](NC(=O)OC)C6CCOCC6)[nH]5)ccc4n3)cc2)[nH]1)C(C)C [compound 495] | < 1 nM |
| COC[C@H](NC(=O)OC)C(=O)N1CCC[C@H]1c1ncc(-c2ccc3cc(-c4ccc(-c5cnc([C@@H]6CCCN6C(=O)[C@H](NC(=O)OC)c6cccs6)[nH]5)cc4)ccc3c2)[nH]1 [compound 496] | < 1 nM |
| COC(=O)N[C@H](C(=O)N1CCC[C@H]1c1ncc(-c2ccc3cc(-c4ccc(-c5cnc([C@@H]6CCCN6C(=O)[C@H](NC(=O)OC)c6cccs6)[nH]5)cc4)ccc3c2)[nH]1)C(C)C [compound 497] | < 1 nM |
| COC(=O)N[C@H](C(=O)N1CCC[C@H]1c1ncc(-c2ccc3cc(-c4ccc(-c5cnc([C@@H]6CCCN6C(=O)[C@H](NC(=O)OC)c6cccs6)[nH]5)cc4)ccc3c2)[nH]1)C(C)O (some centres unmarked) [compound 498] | < 1 nM |
| COC(=O)N[C@@H](C)C(=O)N1CCC[C@H]1c1ncc(-c2ccc3cc(-c4ccc(-c5cnc([C@@H]6CCCN6C(=O)[C@H](NC(=O)OC)c6ccccc6)[nH]5)nn4)ccc3c2)[nH]1 [compound 499] | < 1 nM |
| COC(=O)N[C@H](C(=O)N1CCC[C@H]1c1ncc(-c2ccc3cc(-c4ccc(-c5cnc([C@@H]6CCCN6C(=O)[C@H](NC(=O)OC)c6ccccc6)[nH]5)nn4)ccc3c2)[nH]1)[C@@H](C)OC [compound 500] | < 1 nM |
| COC(=O)N[C@H](C(=O)N1CCC[C@H]1c1ncc(-c2ccc3cc(-c4ccc(-c5cnc([C@@H]6CCCN6C(=O)[C@H](NC(=O)OC)c6ccccc6)[nH]5)nn4)ccc3c2)[nH]1)[C@@H](C)O [compound 501] | < 1 nM |
| COC(=O)N[C@@H](C)C(=O)N1CCC[C@H]1c1ncc(-c2ccc3cc(-c4ccc(-c5cnc([C@@H]6CCCN6C(=O)[C@H](NC(=O)OC)c6cccs6)[nH]5)cc4)ccc3c2)[nH]1 [compound 502] | < 1 nM |
| CC[C@H](C)[C@H](NC(=O)OC)C(=O)N1CCC[C@H]1c1ncc(-c2ccc(-c3ccc4cc(-c5cnc([C@@H]6CCCN6C(=O)[C@@H](NC(=O)OC)[C@@H](C)OC)[nH]5)ccc4c3)cc2)[nH]1 [compound 503] | < 1 nM |
| COC(=O)N[C@H](C(=O)N1CCC[C@H]1c1ncc(-c2ccc(-c3ccc4cc(-c5cnc([C@@H]6CCCN6C(=O)[C@@H](NC(=O)OC)[C@@H](C)OC)[nH]5)ccc4c3)cc2)[nH]1)C1CCCC1 [compound 504] | < 1 nM |
| CCC(CC)[C@H](NC(=O)OC)C(=O)N1CCC[C@H]1c1ncc(-c2ccc(-c3ccc4cc(-c5cnc([C@@H]6CCCN6C(=O)[C@@H](NC(=O)OC)[C@@H](C)OC)[nH]5)ccc4c3)cc2)[nH]1 [compound 505] | < 1 nM |
| COC(=O)N[C@H](C(=O)N1CCC[C@H]1c1ncc(-c2ccc3cc(-c4cnc(-c5cnc([C@@H]6CCCN6C(=O)[C@@H](NC(=O)OC)C(C)C)[nH]5)cn4)ccc3c2)[nH]1)C(C)C [compound 506] | < 1 nM |

| SMILES | EC50 |
| --- | --- |
| COC(=O)N[C@@H](C(=O)N1CCC[C@H]1c1ncc(-c2ccc3nc(-c4ccc5nc([C@@H]6CCCN6C(=O)[C@H](NC(=O)OC)c6ccccc6)[nH]c5c4)ccc3c2)[nH]1)c1ccccc1 [compound 507] | < 1 nM |
| O=C(N[C@@H](C(=O)N1CCC[C@H]1c1ncc(-c2ccc3nc(-c4ccc5nc([C@@H]6CCCN6C(=O)[C@H](NC(=O)OC6CCOCC6)c6ccccc6)[nH]c5c4)ccc3c2)[nH]1)c1ccccc1)OC1CCOCC1 [compound 508] | < 1 nM |
| COC(=O)N[C@H](C(=O)N1CCC[C@H]1c1nc2ccc(-c3ccc4cc(-c5cnc([C@@H]6CCCN6C(=O)[C@H](NC(=O)OC6CCOCC6)c6ccccc6)[nH]5)ccc4n3)cc2[nH]1)C(C)C [compound 509] | < 1 nM |
| COC(=O)N[C@H](C(=O)N1CCC[C@H]1c1nc2ccc(-c3ccc4cc(-c5cnc([C@@H]6CCCN6C(=O)[C@@H](NC(=O)OC)[C@@H](C)OC)[nH]5)ccc4c3)cc2[nH]1)C(C)C [compound 510] | < 1 nM |
| CC[C@H](C)[C@H](NC(=O)OC)C(=O)N1CCC[C@H]1c1nc2ccc(-c3ccc4cc(-c5cnc([C@@H]6CCCN6C(=O)[C@@H](NC(=O)OC)[C@@H](C)OC)[nH]5)ccc4c3)cc2[nH]1 [compound 511] | < 1 nM |
| COC(=O)NC(C(=O)N1CCC[C@H]1c1ncc(-c2ccc3cc(-c4ccc5nc([C@@H]6CCCN6C(=O)C(NC(=O)OC)=C(C)C)[nH]c5c4)ccc3c2)[nH]1)=C(C)C [compound 512] | < 1 nM |
| COC[C@H](NC(=O)OC)C(=O)N1CCC[C@H]1c1ncc(-c2ccc3cc(-c4ccc5nc([C@@H]6CCCN6C(=O)[C@@H](NC(=O)OC)C(C)C)[nH]c5c4)ccc3c2)[nH]1 [compound 513] | < 1 nM |
| CC[C@H](C)[C@H](NC(=O)OC)C(=O)N1CCC[C@H]1c1nc2ccc(-c3ccc4cc(-c5cnc([C@@H]6CCCN6C(=O)[C@H](COC)NC(=O)OC)[nH]5)ccc4c3)cc2[nH]1 [compound 514] | < 1 nM |
| COC(=O)N[C@H](C(=O)N1CCC[C@H]1c1ncc(-c2ccc3cc(-c4ccc5nc([C@@H]6CCCN6C(=O)[C@@H](NC(=O)OC)C6CCCC6)[nH]c5n4)ccc3c2)[nH]1)C1CCCC1 [compound 515] | < 1 nM |
| COC(=O)N[C@H](C(=O)N1CCC[C@H]1c1ncc(-c2ccc3cc(-c4ccc5nc([C@@H]6CCCN6C(=O)[C@@H](NC(=O)OC)C6CC6)[nH]c5n4)ccc3c2)[nH]1)C1CC1 [compound 516] | < 1 nM |
| COC(=O)N[C@H](C(=O)N1CCC[C@H]1c1ncc(-c2ccc3cc(-c4ccc5nc([C@@H]6CCCN6C(=O)[C@@H](NC(=O)OC)C6CCCCC6)[nH]c5n4)ccc3c2)[nH]1)C1CCCCC1 [compound 517] | < 1 nM |
| CCC(CC)[C@H](NC(=O)OC)C(=O)N1CCC[C@H]1c1ncc(-c2ccc3cc(-c4ccc5nc([C@@H]6CCCN6C(=O)[C@@H](NC(=O)OC)C(CC)CC)[nH]c5c4)ncc3c2)[nH]1 [compound 518] | < 1 nM |
| COC(=O)N[C@H](C(=O)N1CCC[C@H]1c1ncc(-c2ccc3cc(-c4cnc5nc([C@@H]6CCCN6C(=O)[C@@H](NC(=O)OC)[C@@H](C)OC)[nH]c5c4)ccc3c2)[nH]1)[C@@H](C)OC [compound 519] | < 1 nM |
| CCC(CC)[C@H](NC(=O)OC)C(=O)N1CCC[C@H]1c1ncc(-c2ccc3cc(-c4ccc5nc([C@@H]6CCCN6C(=O)[C@@H](NC(=O)OC)C(CC)CC)[nH]c5n4)ccc3c2)[nH]1 [compound 520] | < 1 nM |
| CC[C@H](C)[C@H](NC(=O)OC)C(=O)N1CCC[C@H]1c1ncc(-c2ccc3cc(-c4ccc5nc([C@@H]6CCCN6C(=O)[C@@H](NC(=O)OC)[C@@H](C)CC)[nH]c5n4)ccc3c2)[nH]1 [compound 521] | < 1 nM |
| CC[C@@H](C)[C@H](NC(=O)OC)C(=O)N1CCC[C@H]1c1ncc(-c2ccc3cc(-c4ccc5nc([C@@H]6CCCN6C(=O)[C@@H](NC(=O)OC)[C@H](C)CC)[nH]c5n4)ccc3c2)[nH]1 [compound 522] | < 1 nM |
| COC(=O)N[C@@H](C(=O)N1CCC[C@H]1c1ncc(-c2ccc3cc(-c4ccc5nc([C@@H]6CCCN6C(=O)[C@H](NC(=O)OC)C6=CCC=CC6)[nH]c5n4)ccc3c2)[nH]1)C1=CCC=CC1 [compound 523] | < 1 nM |
| CC[C@H](C)[C@H](NC(=O)OC)C(=O)N1CCC[C@H]1c1nc2ccc(-c3ccc4cc(-c5cnc([C@@H]6CCCN6C(=O)[C@@H](NC(=O)OC)[C@@H](C)O)[nH]5)ccc4c3)cc2[nH]1 [compound 524] | < 1 nM |
| COC(=O)N[C@H](C(=O)N1CCC[C@H]1c1ncc(-c2ccc3cc(-c4ccc5nc([C@@H]6CCCN6C(=O)[C@@H](NC(=O)OC)[C@@H](C)OC)[nH]c5c4)ccc3c2)[nH]1)C(C)C [compound 525] | < 1 nM |
| CC[C@H](C)[C@H](NC(=O)OC)C(=O)N1CCC[C@H]1c1ncc(-c2ccc3cc(-c4ccc5nc([C@@H]6CCCN6C(=O)[C@@H](NC(=O)OC)[C@@H](C)OC)[nH]c5c4)ccc3c2)[nH]1 [compound 526] | < 1 nM |
